Experimental data: PubChem BioAssay AID248 (DTP/NCI, 2004)
Where “and” joins values, the source holds several entries; their conditions need not be identical. Equal values may be shown once. Toxic doses and inconclusive results are not listed. Cut-off read from the data, not from the text of the source: active = T/C of 150% or more; inactive = T/C below 125%.

System: L1210 leukemia ip in BDF1 mice, survival T/C
Test: NCI In Vivo Anticancer Drug Screen. Data for tumor model L1210 Leukemia (intraperitoneal) in B6D2F1 (BDF1) mice
Conditions: higher = longer survival
How it was run: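 Antitumor effect is assessed in tumor-bearing animals. Survival in the compound arm is compared with a vehicle-dosed control arm and expressed as their quotient.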

Measured: T/C

CC[n+]1c(-c2ccccc2)c2cc(N)ccc2c2ccc(N)cc21
inactive: endpoint: mean survival time, dose: 0.63 mg/kg/injection, schedule: Q01DX Z (ip), vehicle: saline 113 % of control | endpoint: mean survival time, dose: 1.25 mg/kg/injection, schedule: Q01DX Z (ip), vehicle: saline 122 % of control | endpoint: mean survival time, dose: 2.25 mg/kg/injection, schedule: Q01DX001 (ip), vehicle: saline 110 % of control and 113 % of control | endpoint: mean survival time, dose: 2.25 mg/kg/injection, schedule: Q07DX003 (ip), vehicle: saline 113 % of control | endpoint: mean survival time, dose: 2.5 mg/kg/injection, schedule: Q01DX005 (ip), vehicle: saline 109 % of control | endpoint: mean survival time, dose: 2.5 mg/kg/injection, schedule: Q01DX009 (ip), vehicle: saline 107 % of control | endpoint: mean survival time, dose: 2.5 mg/kg/injection, schedule: Q## X040 (ip), vehicle: saline 107 % of control | endpoint: mean survival time, dose: 2.5 mg/kg/injection, schedule: Q#A X Z (ip), vehicle: saline 108 % of control | endpoint: mean survival time, dose: 4.4 mg/kg/injection, schedule: Q02DX010 (ip), vehicle: saline 110 % of control | endpoint: mean survival time, dose: 4.5 mg/kg/injection, schedule: Q01DX001 (ip), vehicle: saline 104 % of control and 113 % of control | endpoint: mean survival time, dose: 4.5 mg/kg/injection, schedule: Q07DX003 (ip), vehicle: saline 109 % of control | endpoint: mean survival time, dose: 5.0 mg/kg/injection, schedule: Q01DX005 (ip), vehicle: saline 116 % of control | endpoint: mean survival time, dose: 5.0 mg/kg/injection, schedule: Q01DX006 (iv), vehicle: saline 104 % of control | endpoint: mean survival time, dose: 5.0 mg/kg/injection, schedule: Q01DX009 (ip), vehicle: saline 108 % of control | endpoint: mean survival time, dose: 5.0 mg/kg/injection, schedule: Q01DX Z (im), vehicle: saline 106 % of control | endpoint: mean survival time, dose: 5.0 mg/kg/injection, schedule: Q01DX Z (sc), vehicle: saline 110 % of control | endpoint: mean survival time, dose: 5.0 mg/kg/injection, schedule: Q## X040 (ip), vehicle: saline 111 % of control | endpoint: mean survival time, dose: 5.3 mg/kg/injection, schedule: Q02DX010 (ip), vehicle: saline 116 % of control | endpoint: mean survival time, dose: 6.6 mg/kg/injection, schedule: Q02DX010 (ip), vehicle: saline 116 % of control | endpoint: mean survival time, dose: 9.0 mg/kg/injection, schedule: Q01DX001 (ip), vehicle: saline 113 % of control and 116 % of control | endpoint: mean survival time, dose: 9.0 mg/kg/injection, schedule: Q07DX003 (ip), vehicle: saline 110 % of control | endpoint: mean survival time, dose: 9.9 mg/kg/injection, schedule: Q02DX010 (ip), vehicle: saline 115 % of control | endpoint: mean survival time, dose: 10.0 mg/kg/injection, schedule: Q01DX005 (ip), vehicle: saline 120 % of control | endpoint: mean survival time, dose: 10.0 mg/kg/injection, schedule: Q01DX006 (iv), vehicle: saline 123 % of control | endpoint: mean survival time, dose: 10.0 mg/kg/injection, schedule: Q01DX009 (ip), vehicle: saline 116 % of control | endpoint: mean survival time, dose: 10.0 mg/kg/injection, schedule: Q01DX Z (im), vehicle: saline 119 % of control | endpoint: mean survival time, dose: 10.0 mg/kg/injection, schedule: Q01DX Z (sc), vehicle: saline 116 % of control | endpoint: mean survival time, dose: 10.0 mg/kg/injection, schedule: Q## X040 (ip), vehicle: saline 112 % of control | endpoint: mean survival time, dose: 10.0 mg/kg/injection, schedule: Q#A X Z (ip), vehicle: saline 112 % of control | endpoint: mean survival time, dose: 12.5 mg/kg/injection, schedule: Q04DX003 (ip), vehicle: water 104 % of control | endpoint: mean survival time, dose: 14.85 mg/kg/injection, schedule: Q02DX010 (ip), vehicle: saline 113 % of control | endpoint: mean survival time, dose: 15.0 mg/kg/injection, schedule: Q03DX006 (ip), vehicle: saline 118 % of control | endpoint: mean survival time, dose: 18.0 mg/kg/injection, schedule: Q01DX001 (ip), vehicle: saline 116 % of control and 121 % of control | endpoint: mean survival time, dose: 18.0 mg/kg/injection, schedule: Q07DX003 (ip), vehicle: saline 122 % of control | endpoint: mean survival time, dose: 20.0 mg/kg/injection, schedule: Q01DX001 (ip), vehicle: saline 109 % of control | endpoint: mean survival time, dose: 20.0 mg/kg/injection, schedule: Q01DX001 (sc), vehicle: saline 103 % of control | endpoint: mean survival time, dose: 20.0 mg/kg/injection, schedule: Q01DX003 (ip), vehicle: saline 118 % of control | endpoint: mean survival time, dose: 20.0 mg/kg/injection, schedule: Q01DX005 (ip), vehicle: saline 110 % of control | endpoint: mean survival time, dose: 20.0 mg/kg/injection, schedule: Q01DX009 (ip), vehicle: saline 117 % of control | endpoint: mean survival time, dose: 20.0 mg/kg/injection, schedule: Q01DX Z (im), vehicle: saline 116 % of control | endpoint: mean survival time, dose: 20.0 mg/kg/injection, schedule: Q01DX Z (ip), vehicle: saline 95 % of control | endpoint: mean survival time, dose: 20.0 mg/kg/injection, schedule: Q01DX Z (oral), vehicle: saline 110 % of control | endpoint: mean survival time, dose: 20.0 mg/kg/injection, schedule: Q01DX Z (sc), vehicle: saline 122 % of control | endpoint: mean survival time, dose: 20.0 mg/kg/injection, schedule: Q## X008 (ip), vehicle: saline 94 % of control | endpoint: mean survival time, dose: 20.0 mg/kg/injection, schedule: Q## X024 (ip), vehicle: saline 107 % of control | endpoint: mean survival time, dose: 22.27 mg/kg/injection, schedule: Q02DX010 (ip), vehicle: saline 117 % of control | endpoint: mean survival time, dose: 25.0 mg/kg/injection, schedule: Q04DX003 (ip), vehicle: water 104 % of control | endpoint: mean survival time, dose: 40.0 mg/kg/injection, schedule: Q01DX001 (ip), vehicle: saline 118 % of control | endpoint: mean survival time, dose: 40.0 mg/kg/injection, schedule: Q01DX001 (sc), vehicle: saline 102 % of control | endpoint: mean survival time, dose: 40.0 mg/kg/injection, schedule: Q01DX003 (ip), vehicle: saline 110 % of control | endpoint: mean survival time, dose: 40.0 mg/kg/injection, schedule: Q01DX005 (ip), vehicle: saline 96 % of control | endpoint: mean survival time, dose: 40.0 mg/kg/injection, schedule: Q01DX009 (ip), vehicle: saline 90 % of control | endpoint: mean survival time, dose: 40.0 mg/kg/injection, schedule: Q01DX Z (oral), vehicle: saline 113 % of control | endpoint: mean survival time, dose: 40.0 mg/kg/injection, schedule: Q## X008 (ip), vehicle: saline 95 % of control | endpoint: mean survival time, dose: 40.0 mg/kg/injection, schedule: Q## X024 (ip), vehicle: saline 111 % of control | endpoint: mean survival time, dose: 40.0 mg/kg/injection, schedule: Q## X040 (ip), vehicle: saline 93 % of control | endpoint: mean survival time, dose: 60.0 mg/kg/injection, schedule: Q03DX006 (ip), vehicle: saline 93 % of control | endpoint: mean survival time, dose: 70.0 mg/kg/injection, schedule: Q01DX001 (ip), vehicle: saline 118 % of control and 119 % of control | endpoint: mean survival time, dose: 70.0 mg/kg/injection, schedule: Q07DX003 (ip), vehicle: saline 124 % of control | endpoint: mean survival time, dose: 80.0 mg/kg/injection, schedule: Q01DX001 (ip), vehicle: saline 103 % of control | endpoint: mean survival time, dose: 80.0 mg/kg/injection, schedule: Q01DX001 (sc), vehicle: saline 108 % of control | endpoint: mean survival time, dose: 80.0 mg/kg/injection, schedule: Q01DX003 (ip), vehicle: saline 98 % of control | endpoint: mean survival time, dose: 80.0 mg/kg/injection, schedule: Q01DX Z (oral), vehicle: saline 108 % of control | endpoint: mean survival time, dose: 80.0 mg/kg/injection, schedule: Q## X008 (ip), vehicle: saline 103 % of control | endpoint: mean survival time, dose: 140.0 mg/kg/injection, schedule: Q01DX001 (ip), vehicle: saline 104 % of control and 124 % of control | endpoint: mean survival time, dose: 160.0 mg/kg/injection, schedule: Q01DX001 (ip), vehicle: saline 94 % of control | endpoint: mean survival time, dose: 160.0 mg/kg/injection, schedule: Q01DX Z (oral), vehicle: saline 113 % of control | endpoint: mean survival time, dose: 160.0 mg/kg/injection, schedule: Q## X024 (ip), vehicle: saline 94 % of control | endpoint: mean survival time, dose: 200.0 mg/kg/injection, schedule: Q01DX001 (oral), vehicle: saline 103 % of control | endpoint: mean survival time, dose: 215.0 mg/kg/injection, schedule: Q04DX003 (ip), vehicle: water 109 % of control | endpoint: mean survival time, dose: 400.0 mg/kg/injection, schedule: Q01DX001 (oral), vehicle: saline 103 % of control | endpoint: mean survival time, dose: 430.0 mg/kg/injection, schedule: Q04DX003 (ip), vehicle: water 93 % of control | endpoint: mean survival time, dose: 800.0 mg/kg/injection, schedule: Q01DX001 (oral), vehicle: saline 101 % of control | endpoint: mean survival time, dose: 1600.0 mg/kg/injection, schedule: Q01DX001 (oral), vehicle: saline 102 % of control | endpoint: median survival time, dose: 3.6 mg/kg/injection, schedule: Q01DX005 (ip), vehicle: water 105 % of control | endpoint: median survival time, dose: 5.0 mg/kg/injection, schedule: Q01DX009 (ip), vehicle: water 109 % of control and 110 % of control | endpoint: median survival time, dose: 6.0 mg/kg/injection, schedule: Q01DX005 (ip), vehicle: water 100 % of control | endpoint: median survival time, dose: 10.0 mg/kg/injection, schedule: Q01DX005 (ip), vehicle: water 111 % of control | endpoint: median survival time, dose: 10.0 mg/kg/injection, schedule: Q01DX009 (ip), vehicle: water 116 % of control and 120 % of control | endpoint: median survival time, dose: 17.0 mg/kg/injection, schedule: Q01DX005 (ip), vehicle: water 111 % of control | endpoint: median survival time, dose: 17.0 mg/kg/injection, schedule: Q04DX003 (ip), vehicle: water 100 % of control | endpoint: median survival time, dose: 20.0 mg/kg/injection, schedule: Q01DX009 (ip), vehicle: water 90 % of control | endpoint: median survival time, dose: 29.0 mg/kg/injection, schedule: Q01DX005 (ip), vehicle: water 116 % of control | endpoint: median survival time, dose: 29.0 mg/kg/injection, schedule: Q04DX003 (ip), vehicle: water 100 % of control | endpoint: median survival time, dose: 40.0 mg/kg/injection, schedule: Q01DX009 (ip), vehicle: water 70 % of control | endpoint: median survival time, dose: 48.0 mg/kg/injection, schedule: Q04DX003 (ip), vehicle: water 100 % of control | endpoint: median survival time, dose: 49.0 mg/kg/injection, schedule: Q01DX005 (ip), vehicle: water 116 % of control | endpoint: median survival time, dose: 80.0 mg/kg/injection, schedule: Q04DX003 (ip), vehicle: water 105 % of control | endpoint: median survival time, dose: 134.0 mg/kg/injection, schedule: Q04DX003 (ip), vehicle: water 111 % of control
